Measurements reported in US20190201419A1, “COMPOUND AND METHOD FOR THE TREATMENT AND DIAGNOSIS OF NEURODEGENERATIVE CONDITIONS” (Swansea University, priority 2013, published 2019).

Legend:
Assay type in all cases: cell-based, mouse
Fxr = biological target: T1, Fxr (Homo sapiens, UniProt Q96RI1); experiment: Fxr luciferase reporter assay in SN4741 neural cells; settings: 24 h
T1 construct: expressed in transfected cells; host or cells: SN4741 mouse neuronal cell line
T1 sequence (Q96RI1 1-486): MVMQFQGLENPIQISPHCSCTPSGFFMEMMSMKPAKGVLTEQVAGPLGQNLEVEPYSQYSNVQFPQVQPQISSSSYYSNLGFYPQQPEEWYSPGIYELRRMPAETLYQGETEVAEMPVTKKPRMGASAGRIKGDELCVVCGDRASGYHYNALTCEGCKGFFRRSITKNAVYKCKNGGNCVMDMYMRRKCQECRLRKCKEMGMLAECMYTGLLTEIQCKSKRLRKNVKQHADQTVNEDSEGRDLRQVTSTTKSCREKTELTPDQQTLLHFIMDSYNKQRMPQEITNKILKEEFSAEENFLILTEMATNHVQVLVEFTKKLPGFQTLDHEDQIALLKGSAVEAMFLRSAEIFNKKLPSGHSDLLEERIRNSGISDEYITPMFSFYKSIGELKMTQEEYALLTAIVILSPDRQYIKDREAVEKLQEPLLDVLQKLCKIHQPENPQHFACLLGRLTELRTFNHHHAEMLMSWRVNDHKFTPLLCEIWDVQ
Protocol: (§1) Luciferase Reporter Assay. The ability of oxysterols and their acidic metabolites to activate several nuclear receptors i.e. Lxrα and β, Fxr, Vdr, Nurr1 was tested in luciferase assays. Transient transfection studies were performed in the mouse neuronal cell line SN4741. This cell line was selected as the oxysterols and acidic metabolites tested were initially identified in CSF. Cells were plated in 24-well plates ([…] cells/well) 24 hr before transfection and transfected with 1 μg of plasmid DNA/well complexed with 2 μL of Lipofectarnine 2000 (Invitrogen), Cells were transfected with 400 ng of a Lxr-, Fxr-, Vdr- or Nurr1-responsive luciferase reporter construct, and 200 ng of Lxrα, Lxrβ, Fxr, Vdr or Nurr1. A reporter gene expressing the Renilla luciferase (pRL-TK, Promega) was co-transfected in all experiments as an internal control for normalization of transfection efficiency. After a 12 h incubation, the lipid/DNA mix was replaced with fresh 2.5% serum medium containing vehicle or appropriate ligand (10 μM), as specified in each experiment. […] Luciferase activities were assayed 24 h later using the Dual-Luciferase Reporter Assay System (Promega), following the manufacturer's protocol.

[1] = test system: Nur-related factor 1 (Nurr1)/retinoid X receptor (Rxr) heterodimers; experiment: DR5 element luciferase reporter assay (Nurr1/Rxr) in SN4741 neural cells; settings: 10 μM
Text: Luciferase Reporter Assay.

Vdr = biological target: T2, Vdr (Homo sapiens, UniProt P11473); experiment: Vdr luciferase reporter assay in SN4741 neural cells; settings: 10 μM
T2 sequence (P11473 1-427): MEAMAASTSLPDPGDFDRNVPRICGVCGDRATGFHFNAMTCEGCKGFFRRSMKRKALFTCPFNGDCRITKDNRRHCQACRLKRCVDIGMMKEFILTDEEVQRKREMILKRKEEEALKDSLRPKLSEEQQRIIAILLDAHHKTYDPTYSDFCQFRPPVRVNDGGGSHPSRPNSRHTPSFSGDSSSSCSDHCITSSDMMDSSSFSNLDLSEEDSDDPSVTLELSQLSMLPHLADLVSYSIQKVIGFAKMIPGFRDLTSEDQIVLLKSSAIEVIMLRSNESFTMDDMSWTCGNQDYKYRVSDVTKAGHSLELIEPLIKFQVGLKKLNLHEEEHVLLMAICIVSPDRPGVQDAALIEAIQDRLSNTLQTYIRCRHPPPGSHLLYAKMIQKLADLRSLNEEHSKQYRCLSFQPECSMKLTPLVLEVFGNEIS
Protocol: as §1

C[C@H](CCC(=O)O)[C@H]1CC[C@H]2[C@@H]3CC=C4C[C@@H](O)CC[C@]4(C)[C@H]3CC[C@]12C [3βH-Δ^5-BA, 3β-hydroxychol-5-en-24-oic acid]
Fxr activation, luciferase reporter (Fxr): also activated Fxr, but was less potent than CDCA

CC1=C(/C=C/C(C)=C\C=C\C(C)=C\C(=O)O)C(C)(C)CCC1 [9-cis-RA, 9-cis-retinoic acid]
DR5 (Nurr1/Rxr) luciferase reporter activation [1]: activated this reporter

C[C@H](CCC(=O)O)[C@H]1CC[C@H]2[C@@H]3CC[C@@H]4C[C@H](O)CC[C@]4(C)[C@H]3CC[C@]12C [LCA, lithocholic acid]
Vdr activation, luciferase reporter (Vdr): activated a vitamin D receptor (Vdr) luciferase reporter
